Results on 18 molecules are retold here after patent publication US9340577B2, “HLA binding motifs and peptides and their uses” (priority 1992, dated 2016).

What all share (assay): biochemical
The target in experiment [1] is DRB5*0101 (Homo sapiens, UniProt P01903+Q30154). To be noted: Binding affinity DRB5 *0101.
For experiment [2], the target named is DRB1*0405 (Homo sapiens, UniProt P01903+P01911, A100R/A169T/D86S/F76Y/I96L/K127E/L162R/M171V/N62H/P40V/Q125Y/R42H/S133A/S149N/S66Y/V115G/V209L/W38E). Type of experiment: binding.
Experiment [3] concerns the target DRB1*0901 (Homo sapiens, UniProt P01903+P01911, A100R/A103E/D57H/D86V/F55Y/F60I/F76Y/I96F/K127E/L162R/M171V/P40D/Q125H/Q99R/R33Q/R42F/S133A/S66N/T210M/V115G/W38K/Y107V/Y59G/Y89S). Type of experiment: binding.
Experiment [4] addresses DRB4*0101 (Homo sapiens, UniProt P01903+P13762, G164S). Type of experiment: binding.
Experiment [5] deals with DRB1*1101 (Homo sapiens, UniProt P01903+P01911, A100R/A169T/A87E/I96F/K41T/L162R/M171V/P40S/Q125H/Q178H/Q39Y/Q99D/R42S/S66Y/T262R/V115G/W38E). As to conditions: Binding affinity DRB1 *1101.
DRB1*1101, sequence (P01903 26-254 limits assumed, other chains not shown): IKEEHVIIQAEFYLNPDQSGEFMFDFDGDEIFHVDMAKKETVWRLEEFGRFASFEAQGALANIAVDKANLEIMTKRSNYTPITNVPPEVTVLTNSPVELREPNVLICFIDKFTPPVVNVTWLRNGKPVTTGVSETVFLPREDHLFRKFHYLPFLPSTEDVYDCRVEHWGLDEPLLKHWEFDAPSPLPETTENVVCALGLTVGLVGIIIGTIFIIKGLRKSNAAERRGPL
Experiment [6] concerns the target DR4w4 (DRB1*0401) (Homo sapiens, UniProt P01903+P01911, A100K/A169T/F76Y/I96L/K127E/L162R/M171V/N62H/P40V/Q125Y/R42H/S133A/S149N/S66Y/V115G/V209L/W38E). Type of experiment: binding.
Experiment [7] has as its target DR7 (DRB1*0701) (Homo sapiens, UniProt P01903+P01911, A100R/A102G/A103Q/D57E/D86V/E43K/F76Y/K127E/L162R/M171V/P40G/Q125H/Q99D/R33Q/R42Y/R54Q/S133A/S66F/T210M/V115G/Y107V/Y59L/Y89S). Type of experiment: binding.
The target in experiment [8] is DRB1*1501 (Homo sapiens, UniProt P01903+P01911). Type of experiment: binding.
The target of experiment [9] is DRB1*0802 (Homo sapiens, UniProt P01903+P01911, A100R/A103L/A169T/F76Y/H45Y/I96F/K41T/L162R/M171V/P40S/Q125H/Q178H/Q39Y/Q99D/R218S/R42G/S66Y/V115G/W38E). Type of experiment: binding.
The target in experiment [10] is DR1 (DRB1*0101) (Homo sapiens, UniProt P01903+P01911, A100R/D57E/F55L/F60I/F76Y/I96L/L162R/M171V/P40L/Q125E/R42F/V115G/Y59C). Type of experiment: binding.
In experiment [11] the target is DRB1*1302 (Homo sapiens, UniProt P01903+P01911, A100E/A169T/K41T/L162R/M171V/P40S/Q125H/Q178H/Q39Y/Q99D/R42S/S66N/T262R/V115G/W38E/Y61H). Type of experiment: binding.
DRB1*1302, sequence (P01903 26-254 limits assumed, other chains not shown): as above

No end group written: not given here.

Consider `CC[C@H](C)[C@H](NC(=O)[C@H](C)NC(=O)[C@H](CCCCN)NC(=O)[C@@H](N)Cc1c[nH]cn1)C(=O)N[C@@H](CCC(=O)O)C(=O)N[C@@H](CC(C)C)C(=O)N[C@@H](CCC(N)=O)C(=O)N[C@@H](CCSC)C(=O)N[C@@H](C)C(=O)N[C@@H](CC(C)C)C(=O)N[C@@H](CCC(N)=O)C(=O)NCC(=O)N[C@@H](CC(C)C)C(=O)N[C@@H](C)C(=O)N[C@@H](CCC(N)=O)C(=O)O` [Peptide 89.0160], for which the IC50 in [1] was greater than 20 µM; in experiment [2], greater than 20 µM; in experiment [3], greater than 20 µM; in [4] it was 3.47 µM; in experiment [5] it was 16.8 µM; in [6], 0.35 µM. The IC50 in experiment [7] is greater than 20 µM; in experiment [8] it was 1.28 µM; in experiment [9] it was greater than 20 µM; in experiment [10], greater than 20 µM.

Take CWTYFDNYMRNALDG [Peptide 89.0090]: the 50% inhibitory concentration (IC50) in [2] is 4.88 µM; in experiment [3], greater than 20 µM; in experiment [4] it was 2.04 µM; in [5], greater than 20 µM; in experiment [6] it was 3.59 µM; in experiment [7], 2.91 µM. Also, the half-maximal inhibitory concentration (IC50) in [11] is greater than 20 µM; in experiment [9], 3.69 µM.

Turning to ELQMALETLSKSQYS [Peptide 89.0183], the half-inhibitory concentration (IC50) in experiment [1] was 10.6 µM; in experiment [2], 3.29 µM; in experiment [3], 0.204 µM; in [4], greater than 20 µM; in [6], 0.434 µM; in experiment [7], 3.14 µM. The half-inhibitory concentration (IC50) in experiment [11] is 4.3 µM; in experiment [10], 0.08 µM.

As for ESDMAFQYAQLADCN [Peptide 89.0085], the IC50 in experiment [1] is 7.69 µM; in experiment [2], 19.7 µM; in [4] it was 0.048 µM; in experiment [5], 20 µM; in [6], 0.233 µM; in [7], 3.25 µM. Besides, the IC50 worked out at 7.42 µM in experiment [8], 0.224 µM in [11], 5.92 µM in experiment [9] and 0.011 µM in experiment [10].

Consider ETHMVIEPPKLRSAT [Peptide 89.0103], for which the half-inhibitory concentration (IC50) in experiment [1] was 2.87 µM; in experiment [2], 3.54 µM; in experiment [3], greater than 20 µM; in [4], 3.91 µM; in experiment [5], 3.26 µM; in [6], 0.778 µM. For the same molecule, the IC50 was greater than 20 µM in [7], 1.46 µM in experiment [11] and 12.2 µM in experiment [9].

As to HALFTAQEAKQHRDA [Peptide 89.0001], the half-inhibitory concentration (IC50) in [1] was 7.16 µM; in [2] it was 4.75 µM; in experiment [3], greater than 20 µM; in experiment [4], greater than 20 µM; in experiment [5], greater than 20 µM; in experiment [6] it was 0.205 µM. The 50% inhibitory concentration (IC50) in experiment [7], in experiment [8] and in experiment [11] was greater than 20 µM throughout.

Take HQVVPALSVSKAKAL [Peptide 89.0169]: the 50% inhibitory concentration (IC50) in experiment [1] was greater than 20 µM; in experiment [2] it was 15.5 µM; in experiment [3] it was 1.62 µM; in experiment [4] it was greater than 20 µM; in experiment [5], greater than 20 µM; in experiment [6], 0.398 µM. Besides, the IC50 in [7] was 4.73 µM; in experiment [8] it was greater than 20 µM; in [9], greater than 20 µM; in experiment [10] it was 0.099 µM.

Turning to HQVVPPMAVSKAKAC [Peptide 90.0012], the IC50 in experiment [1] was 5.79 µM; in experiment [2], greater than 20 µM; in experiment [4], 0.645 µM; in experiment [5], 7.01 µM; in [6], 2.34 µM; in experiment [7] it was 0.434 µM. Also, the IC50 in experiment [8] was greater than 20 µM; in experiment [11], 0.908 µM; in [10], 0.68 µM.

As to HQVVPSLVASKTKAF [Peptide 90.0023], the 50% inhibitory concentration (IC50) in [1], in experiment [2], in experiment [3], in experiment [4], in experiment [5] and in experiment [6] was greater than 20 µM each time. The IC50 in experiment [7] is 2.73 µM; in experiment [8], greater than 20 µM; in experiment [9], greater than 20 µM; in [10], greater than 20 µM.

Regarding IAYYYAQLADSNSNA [Peptide 89.0072], the concentration for half-maximal inhibition (IC50) in [1] is greater than 20 µM; in [2] it was 4.87 µM; in [3], 3.09 µM; in experiment [4] it was 2.39 µM; in experiment [5], greater than 20 µM; in experiment [6] it was 0.753 µM. Also, the IC50 in experiment [8] was 0.097 µM; in experiment [11] it was greater than 20 µM; in experiment [9], 7.81 µM; in experiment [10] it was 0.382 µM.

Turning to ILLYGAANTGKSLFG [Peptide 89.0018], the half-maximal inhibitory concentration (IC50) in experiment [1] is 1.58 µM; in experiment [2], greater than 20 µM; in [3], greater than 20 µM; in experiment [4], 5.06 µM; in experiment [5], 2.76 µM; in experiment [6], 0.15 µM. The half-maximal inhibitory concentration (IC50) in experiment [7] was 6.13 µM; in experiment [11], 2.69 µM; in experiment [9], 1.75 µM; in experiment [10] it was 0.23 µM.

With ITHIGHQVVPPMAVS [Peptide 90.0010], the IC50 was greater than 20 µM in experiment [1]; 17.1 µM in experiment [2]; greater than 20 µM in experiment [3]; 1.22 µM in experiment [4]; greater than 20 µM in experiment [5]; 0.235 µM in experiment [6]. For the same molecule, the IC50 stood at 4.99 µM in experiment [7], 10.1 µM in experiment [8], 12.2 µM in experiment [9] and 0.05 µM in [10].

For LIQLKCPPILLTTNI [Peptide 89.0038], the IC50 in experiment [1] was greater than 20 µM; in experiment [2] it was 3.95 µM; in experiment [3], greater than 20 µM; in [4] it was 0.158 µM; in experiment [5], greater than 20 µM; in [6], 3.8 µM. Besides, the half-inhibitory concentration (IC50) in [7] is 0.99 µM; in experiment [8], 6.8 µM; in [11], greater than 20 µM; in experiment [10], 0.015 µM.

Regarding LNTVKIPPTVQISTG [Peptide 90.0028], the IC50 in [1] is greater than 20 µM; in experiment [2], greater than 20 µM; in experiment [3], 6.92 µM; in experiment [4], greater than 20 µM; in experiment [5], greater than 20 µM; in experiment [6], greater than 20 µM. Also, the half-inhibitory concentration (IC50) in experiment [7] was greater than 20 µM; in experiment [11], 0.778 µM; in experiment [9], greater than 20 µM; in experiment [10] it was 8.74 µM.

As to QEQMLIQPPKIRSPA [Peptide 89.0124], the concentration for half-maximal inhibition (IC50) was 8.05 µM in experiment [2]; 1.64 µM in experiment [4]; 0.991 µM in [6]; 7.22 µM in experiment [7]; greater than 20 µM in experiment [8]; greater than 20 µM in [11]. In addition, the IC50 in [9] and in experiment [10] was greater than 20 µM throughout.

For RDSVDSAPILTAFNS [Peptide 89.0156], the half-inhibitory concentration (IC50) in experiment [1] is greater than 20 µM; in experiment [2] it was greater than 20 µM; in experiment [4] it was 1.31 µM; in experiment [5], 7.05 µM; in experiment [6], 0.02 µM; in experiment [7], 0.335 µM. Besides, the IC50 in experiment [8] was 4.84 µM; in [11], 0.025 µM; in experiment [9] it was greater than 20 µM; in experiment [10], 7.45 µM.

As for SWGMVVLLLVRYKCG [Peptide 89.0005], the IC50 in experiment [1] was greater than 20 µM; in experiment [2], 0.401 µM; in experiment [3] it was 0.777 µM; in [4], 4.2 µM; in [5], 2.11 µM; in experiment [6], 4.67 µM. For the same molecule, the values for the IC50 in [8] and in experiment [9] were 4.15 µM and greater than 20 µM, respectively.

On to TLAVSKNKALQAIEL [Peptide 89.0150], for which the IC50 in experiment [1] was greater than 20 µM; in experiment [2] it was 1.64 µM; in [3], 5.22 µM; in [4], 0.036 µM; in experiment [5], greater than 20 µM; in experiment [6] it was greater than 20 µM. The half-maximal inhibitory concentration (IC50) in experiment [7], in experiment [8] and in experiment [9] was greater than 20 µM each time.
